Here are results for seven compounds from ChEMBL document CHEMBL1201862, “PubChem BioAssay data set” (2004).

Holding throughout (test): NCI-60 cell line screen, 48 h
In experiment [1] the test system is SF-539.
Experiment [2] relates to COLO 205.
Experiment [3] relates to SNB-19.
For experiment [4], the system named is KM12.
Experiment [5] deals with SW-620.
For experiment [6], the system named is HT-29.
Experiment [7] relates to OVCAR-3.
Experiment [8] relates to OVCAR-5.
Experiment [9] deals with TK-10.
The subject of experiment [10] is RXF 393.
The subject of experiment [11] is CCRF-CEM.
Experiment [12] concerns U-251.
The test system of experiment [13] is MOLT-4.
Experiment [14] relates to Malme-3M.
The subject of experiment [15] is MDA-N.
The test system of experiment [16] is HCT-116.
In experiment [17] the test system is UACC-62.
Experiment [18] concerns SK-OV-3.
Experiment [19] concerns SN12C.
The test system of experiment [20] is SF-268.

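Protocol summary: plate cells (96-well), add compound at 5 concentrations, incubate 48 h, interpolate endpoints linearly. GI50 marks 50% less growth.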 Active and inactive are the calls of the source. No stated cut-off is given here; in the data, active = GI50 up to about 1.1 µM and inactive = higher. Bounds are passed on as bounds.

On to `COC1(CC[C@@H](C)COC2OC(CO)C(O)C(O)C2O)O[C@H]2C[C@H]3[C@@H]4CC=C5C[C@@H](OC6OC(CO)C(O)C(OC7OC(CO)C(O)C(O)C7O)C6OC6OC(C)C(O)C(O)C6O)CC[C@]5(C)[C@H]4CC[C@]3(C)[C@H]2[C@@H]1C` (stereo not given in full), for which the GI50 in experiment [1] was 2.74 µM (inactive); in experiment [2], 9.04 µM (inactive); in experiment [3] it was 6.37 µM (inactive); in experiment [4], 2.08 µM (inactive); in [5], 2.6 µM (inactive); in experiment [6], 4.67 µM (inactive). For the same compound, the GI50 in experiment [7] was 16.8 µM (inactive); in experiment [8], 7.67 µM (inactive); in [9] it was 19.3 µM (inactive); in experiment [10], 5.71 µM (inactive); in experiment [11], 28.6 µM (inactive); in experiment [12], 1.89 µM (inactive). Moreover, the GI50 in experiment [13] was 16 µM (inactive); in [14] it was 3.11 µM (inactive); in experiment [15], 8.63 µM (inactive); in experiment [16], 6.64 µM (inactive); in experiment [17] it was 3.19 µM (inactive); in experiment [18], 4.01 µM (inactive). Moreover, the GI50 in experiment [19] and in [20] was 10.2 µM (inactive) in each case.
For the compound `CCOC(=O)c1c2ccccc2n2c(N)c(C(N)=O)nnc12`, the GI50 in experiment [1] is 16.2 µM (inactive); in [2], > 100 µM (inactive); in experiment [3], 19.3 µM (inactive); in [4], > 100 µM (inactive); in experiment [5], > 100 µM (inactive); in [6], > 100 µM (inactive). The GI50 in experiment [7] was > 100 µM (inactive); in [8] it was > 100 µM (inactive); in experiment [9], 11.3 µM (inactive); in experiment [10], 16.1 µM (inactive); in experiment [11], > 100 µM (inactive); in experiment [12] it was 15.2 µM (inactive). In addition, the GI50 was > 100 µM (inactive) in experiment [13]; 70.8 µM (inactive) in [14]; > 100 µM (inactive) in [15]; 31.1 µM (inactive) in experiment [16]; 19.9 µM (inactive) in [17]; 13.9 µM (inactive) in experiment [18]. For the same compound, the GI50 is > 100 µM (inactive) in experiment [19] and 16 µM (inactive) in experiment [20].
For the compound `O=c1c2c(no[n+]2[O-])c2ccccc2n1-c1ccccc1`, the GI50 in experiment [1] was 8.26 µM (inactive); in [2], 12.2 µM (inactive); in [3] it was 14.5 µM (inactive); in experiment [4], 13.9 µM (inactive); in [5], 2.65 µM (inactive); in experiment [6], 4.89 µM (inactive). Besides, the GI50 in experiment [7] was 12.8 µM (inactive); in experiment [8], 14.8 µM (inactive); in [9], 17.3 µM (inactive); in experiment [10], 6.55 µM (inactive); in experiment [11], 2.25 µM (inactive); in experiment [12] it was 5.19 µM (inactive). For the same compound, the GI50 was 3.03 µM (inactive) in [13]; 5.7 µM (inactive) in experiment [14]; 3.4 µM (inactive) in experiment [15]; 2.17 µM (inactive) in experiment [16]; 4.05 µM (inactive) in experiment [17]; 14.6 µM (inactive) in [18]. Besides, the values for the GI50 in experiment [19] and in [20] were 6.01 µM (inactive) and 8.22 µM (inactive), respectively.
For `CC(C)n1c2c([n+](C)c1/C=C/c1ccccc1)C(=O)c1ccccc1C2=O`, the GI50 in [1] was 0.0334 µM (active); in [2] it was < 0.01 µM (active); in experiment [3], 0.223 µM (active); in experiment [4], 0.132 µM (active); in experiment [5], 0.0501 µM (active); in experiment [6], 0.0875 µM (active). Besides, the GI50 is < 0.01 µM (active) in [7]; 0.501 µM (active) in experiment [8]; 0.538 µM (active) in [9]; 0.322 µM (active) in experiment [10]; 0.0743 µM (active) in experiment [11]; 0.147 µM (active) in experiment [12]. Further, the GI50 in experiment [13] is 0.0504 µM (active); in experiment [14], 0.107 µM (active); in experiment [15] it was 0.299 µM (active); in experiment [16] it was 0.0748 µM (active); in experiment [17] it was 0.198 µM (active); in experiment [18], 0.299 µM (active). In addition, the results for the GI50 in experiment [19] and in experiment [20] were 0.0495 µM (active) and 0.0703 µM (active), respectively.
`O=c1[nH]c2ccc(CC(=S)N3CCN(c4ccccc4)CC3)cc2s1`: the GI50 in experiment [1] was 28 µM (inactive); in [2], 57.1 µM (inactive); in experiment [3], > 100 µM (inactive); in [4], 26.2 µM (inactive); in experiment [5], 71.9 µM (inactive); in [6], 51.8 µM (inactive). Besides, the GI50 in experiment [7] is 23.4 µM (inactive); in experiment [8], 15.7 µM (inactive); in experiment [9], 36.6 µM (inactive); in experiment [10] it was 18 µM (inactive); in experiment [11], 68.9 µM (inactive); in experiment [12], 3.95 µM (inactive). The GI50 is 16.5 µM (inactive) in [13]; 13.5 µM (inactive) in [14]; > 100 µM (inactive) in [15]; 33.9 µM (inactive) in experiment [16]; 62.7 µM (inactive) in [17]; 15.7 µM (inactive) in [18]. Moreover, the GI50 in [19] was 70.6 µM (inactive); in experiment [20], 26.1 µM (inactive).
As for `CC1=Nc2c(O)nc(S)nc2NC(c2c(Cl)cccc2Cl)C1` (stereo not given), the GI50 in experiment [1] is 1.75 µM (inactive); in experiment [2] it was 1.87 µM (inactive); in experiment [3], 2.99 µM (inactive); in [4] it was 1.75 µM (inactive); in experiment [5], 0.971 µM (active); in experiment [6] it was 0.998 µM (active). Further, the GI50 in [7] was 1.58 µM (inactive); in experiment [8], 5.83 µM (inactive); in [9] it was 10.1 µM (inactive); in experiment [10] it was 5.26 µM (inactive); in [11], 0.275 µM (active); in experiment [12], 0.993 µM (active). The GI50 in experiment [13] was 0.646 µM (active); in experiment [14] it was 6.11 µM (inactive); in [15], 0.552 µM (active); in [16], 0.76 µM (active); in experiment [17] it was 1.78 µM (inactive); in [18], 7.28 µM (inactive). For the same compound, the values for the GI50 in experiment [19] and in experiment [20] were 1.42 µM (inactive) and 1.57 µM (inactive), respectively.
As for `N#C[BH2-][n+]1cn(C2CC(OP(=O)(O)OCC3OC(n4cnc5c(=O)[nH]c(N)nc54)CC3O)C(CO)O2)c2nc(N)[nH]c(=O)c21` (stereo not given), the GI50 in [1], in experiment [2], in [3], in experiment [4], in experiment [5] and in [6] was > 100 µM (inactive) in each case. Besides, the GI50 in experiment [7] was > 100 µM (inactive); in experiment [8], > 100 µM (inactive); in experiment [9] it was > 100 µM (inactive); in experiment [10], > 100 µM (inactive); in experiment [11], 37.8 µM (inactive); in [12] it was > 100 µM (inactive). In addition, the GI50 in experiment [13] was 81.8 µM (inactive); in experiment [14], 70.5 µM (inactive); in [15], > 100 µM (inactive); in [16] it was > 100 µM (inactive); in experiment [17] it was > 100 µM (inactive); in [18], > 100 µM (inactive). Further, the GI50 is > 100 µM (inactive) in experiment [19] and 44.4 µM (inactive) in experiment [20].
